# According to patent US6610715B1, “Cathecol hydrazone derivatives, process for preparing the same and pharmaceutical composition containing the same” (Cheil Jedang Corporation, priority 2001, dated 2003):
# Tested on: Phosphodiesterase IV partially purified from human U937 cells
# Experiment: Inhibition of Phosphodiesterase IV Activity ([3H]cAMP hydrolysis, scintillation counting)
# Assay type: biochemical
# Details: 1.0 uM cAMP, 30° C., 20 minutes
# Experimental: Compounds prepared by Examples 1 through 16 and Rolipram as control were tested on the inhibition of phosphodiesterase IV.
# Phosphodiesterase IV partially purified from human U937 cells, test compound and 1.0 uM cAMP including 0.01 uM[^3H]cAMP were incubated at 30° C. for 20 minutes. The PDE reaction to convert cAMP into AMP was […] by boiling the reaction solution for 2 minutes. AMP was converted into adenosine by adding snake venom nucleotidase and incubating the reaction solution at 30° C. for 10 minutes. While unhydrolyzed cAMPs were bonded to AG1-X2 resin, the [^3H]adenosine in the aqueous solution was quantified by scintillation counting. The results are shown in Table I below, in which the values indicate inhibition (%) of the PDE IV by each test compound.
# [1] = test compound concentration 2 uM
# [2] = test compound concentration 20 uM
SMILES,Inhibition (%) of the PDE IV [1] [%],Inhibition (%) of the PDE IV [2] [%]
"COc1ccc(/C=N/NC(=O)c2ccncc2)cc1OC1CCCC1 [EXAMPLE 1, (E)-3-cyclopentyloxy-4-methoxybenzaldehyde isonicotinic hydrazone]",38.4,66.7
"CCOC(=O)N/N=C/c1ccc(OC)c(OC2CCCC2)c1 [EXAMPLE 2, (E)-ethyl[(3-cyclopentyloxy-4-methoxyphenyl)methylene]hydrazinoformate]",46.7,63.7
"COc1ccc(/C=N/Nc2ccccc2)cc1OC1CCCC1 [EXAMPLE 3, (E)-3-cyclopentyloxy-4-methoxybenzaldehyde phenylhydrazone]",46.6,80.4
"COc1ccc(/C=N/NC(C)=O)cc1OC1CCCC1 [EXAMPLE 4, (E)-3-cyclopentyloxy-4-methoxybenzaldehyde acetic hydrazone]",51.7,72.1
"COc1ccc(/C=N/NC2=NCCN2)cc1OC1CCCC1 [EXAMPLE 6, (E)-3-cyclopentyloxy-4-methoxybenzaldehyde 2-imidazolinohydrazone]",31.7,58.3
"COc1ccc(/C=N/NC(N)=O)cc1OC1CCCC1 [EXAMPLE 7, (E)-2-[(3-cyclopentyloxy-4-methoxyphenyl)methylene]hydrazinecarboxamide]",66.2,89.7
"COc1ccc(/C=N/NC(N)=S)cc1OC1CCCC1 [EXAMPLE 9, (E)-2-[(3-cyclopentyloxy-4-methoxyphenyl)methylene]hydrazinecarbothioamide]",69.0,81.0
"COc1ccc(/C=N/Nc2ccc(Cl)cc2)cc1OC1CCCC1 [EXAMPLE 10, (E)-3-cyclopentyloxy-4-methoxybenzaldehyde 4chlorophenylhydrazone]",39.3,70.7
"COc1ccc(/C=N/NC(=O)C[N+](C)(C)C)cc1OC1CCCC1 [EXAMPLE 11, (E)-2[(3-cyclopentyloxy-4-methoxyphenyl)methylene]hydrazinecarbonylmethyl(trimethyl)ammonium chloride]",43.3,45.1
"COc1ccc(/C=N/N2CCCCC2)cc1OC1CCCC1 [EXAMPLE 13, (E)-N-piperidino-3-cyclopentyloxy-4-methoxyphenylmethaneimine]",31.4,73.3
"COc1ccc(/C=N/NC(=N)N)cc1OC1CCCC1 [EXAMPLE 14, (E)-2-[(3-cyclopentyloxy-4-methoxyphenyl)methylene]hydrazinecarboximidamide]",14.7,57.7
"COc1ccc(/C=N/Nc2ccccn2)cc1OC1CCCC1 [EXAMPLE 15, (E)-3-cyclopentyloxy-4-methoxybenzaldehyde 2-pyridinylhydrazone]",49.4,63.6
"COc1ccc(/C=N/Nc2ccccc2C(=O)O)cc1OC1CCCC1 [EXAMPLE 16, (E)-3-cyclopentyloxy-4-methoxybenzaldehyde 2-carboxyphenylhydrazone]",42.3,76.6
"COc1ccc(C2CNC(=O)C2)cc1OC1CCCC1 (stereo not shown) [Rolipram, reference compound]",62.5,70.1
